From US20250145594A1, “MODULATORS OF THE INTEGRATED STRESS PATHWAY” (Calico Life Sciences LLC, priority 2020, published 2025)

Each molecule was assayed on ATF4 luciferase reporter in HEK293T cells (assay: ATF4-Luc assay (in vitro model of VWMD)). Conditions: HEK293T cells carrying the ATF4 luciferase reporter, 1 μg/mL tunicamycin, 7 hours, One Glo luminescence.
Type: cell-based, human
Summary of the method: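 Stable HEK293T line expressing firefly luciferase behind the human ATF4 5′-UTR, treated with 1 μg/mL tunicamycin plus compound for 7 hours. Luminescence read with One Glo; EC50 determined.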

Which EC50 does the source give for `O=C(COc1ccc(Cl)c(F)c1)NC12CC(n3cc(OCCOC(F)(F)F)cn3)(C1)C2` [Compound 617, 2-(4-chloro-3-fluorophenoxy)-N-(3-{4-[2-(trifluoromethoxy)ethoxy]-1H-pyrazol-1-yl}bicyclo[1.1.1]pentan-1-yl)acetamide] here?
The EC50 was under 10 nM.

Same assay, conditions: Homo sapiens, HEK-293T, 7 h, HEK293T cells carrying the ATF4 luciferase reporter, 1 μg/mL tunicamycin, One Glo luminescence

How did the EC50 turn out when `O=C(COc1ccc(C(F)(F)F)cc1O)NC12CC(n3cc([C@H]4C[C@@H](OC(F)(F)F)C4)nn3)(C1)C2` [Compound 615, 2-[2-hydroxy-4-(trifluoromethyl)phenoxy]-N-(3-{4-[(1s,3s)-3-(trifluoromethoxy)cyclobutyl]-1H-1,2,3-triazol-1-yl}bicyclo[1.1.1]pentan-1-yl)acetamide] was run?
The EC50 was 10 to 50 nM.

With `O=C(COc1ccc(Cl)cc1O)NC12CC(n3cc(OCCOC(F)(F)F)cn3)(C1)C2` [Compound 616, 2-(4-chloro-2-hydroxyphenoxy)-N-(3-{4-[2-(trifluoromethoxy)ethoxy]-1H-pyrazol-1-yl}bicyclo[1.1.1]pentan-1-yl)acetamide] as the molecule, how does the EC50 read?
Its EC50 is under 10 nM.

`O=C(COc1ccc(Cl)cc1O)NC12CC(n3cc([C@H]4C[C@@H](OC(F)(F)F)C4)nn3)(C1)C2` [Compound 618, 2-(4-chloro-2-hydroxyphenoxy)-N-(3-{4-[(1s,3s)-3-(trifluoromethoxy)cyclobutyl]-1H-1,2,3-triazol-1-yl}bicyclo[1.1.1]pentan-1-yl)acetamide] was tested. Which EC50 did it give?
The EC50 was 10 to 50 nM.

For `O=C(COc1ccc(Cl)c(F)c1)NC12CC(c3ccc(C(=O)N4CCC(C(F)(F)F)C4)nc3)(C1)C2` (centres unmarked) [Compound 619, 2-(4-chloro-3-fluorophenoxy)-N-(3-{6-[3-(trifluoromethyl)pyrrolidine-1-carbonyl]pyridin-3-yl}bicyclo[1.1.1]pentan-1-yl)acetamide], which EC50 is on record?
The EC50 was 10 to 50 nM.

For `O=C(COc1ccc(Cl)c(F)c1)NC12CC(n3cc([C@H]4C[C@@H](OC(F)(F)F)C4)nn3)(C1)C2` [Compound 620, 2-(4-chloro-3-fluorophenoxy)-N-(3-{4-[(1s,3s)-3-(trifluoromethoxy)cyclobutyl]-1H-1,2,3-triazol-1-yl}bicyclo[1.1.1]pentan-1-yl)acetamide], which EC50 is on record?
The EC50 was under 10 nM.

How did the EC50 turn out when `O=C(COc1ccc(C(F)(F)F)c(F)c1)NC12CC(n3cc(C(=O)N4CC[C@H](OC(F)(F)F)C4)cn3)(C1)C2` [Compound 621, 2-[3-fluoro-4-(trifluoromethyl)phenoxy]-N-(3-{4-[(3S)-3-(trifluoromethoxy)pyrrolidine-1-carbonyl]-1H-pyrazol-1-yl}bicyclo[1.1.1]pentan-1-yl)acetamide] was run?
Its EC50 is under 10 nM.

For `COc1cc2cn(C34CC(NC(=O)COc5ccc(Cl)c(Cl)c5)(C3)C4)nc2cn1` [Compound 622, 2-(3,4-dichlorophenoxy)-N-[3-(5-methoxy-2H-pyrazolo[3,4-c]pyridin-2-yl)bicyclo[1.1.1]pentan-1-yl]acetamide], which EC50 is on record?
The EC50 was 10 to 50 nM.

How did the EC50 turn out when `CCOc1ccc2nn(C34CC(NC(=O)COc5ccc(Cl)c(Cl)c5)(C3)C4)cc2c1` [Compound 623, 2-(3,4-dichlorophenoxy)-N-[3-(5-ethoxy-2H-indazol-2-yl)bicyclo[1.1.1]pentan-1-yl]acetamide] was run?
The EC50 was under 10 nM.

With `O=C(COc1ccc(Cl)c(F)c1)NC12CCC(n3cc(C(=O)N4CC[C@H](OC(F)(F)F)C4)cn3)(CC1)CC2` [Compound 624, 2-(4-chloro-3-fluorophenoxy)-N-(4-{4-[(3S)-3-(trifluoromethoxy)pyrrolidine-1-carbonyl]-1H-pyrazol-1-yl}bicyclo[2.2.2]octan-1-yl)acetamide] as the molecule, how does the EC50 read?
Its EC50 is under 10 nM.

Which EC50 does the source give for `O=C(COc1ccc(Cl)c(F)c1)NC12CC(n3cc([C@H]4[C@@H]5CN(CC(F)(F)F)C[C@@H]54)cn3)(C1)C2` [Compound 625, 2-(4-chloro-3-fluorophenoxy)-N-(3-{4-[(1R,5S,6s)-3-(2,2,2-trifluoroethyl)-3-azabicyclo[3.1.0]hexan-6-yl]-1H-pyrazol-1-yl}bicyclo[1.1.1]pentan-1-yl)acetamide] here?
Its EC50 is under 10 nM.

`O=C(NC12CCC(n3cc(-c4ccc(C(F)(F)F)cn4)cn3)(C1)C2)[C@H]1C[C@@H](O)c2cc(Cl)ccc2O1` [Compound 626, (2R,4R)-6-chloro-4-hydroxy-N-(4-{4-[5-(trifluoromethyl)pyridin-2-yl]-1H-pyrazol-1-yl}bicyclo[2.1.1]hexan-1-yl)-3,4-dihydro-2H-1-benzopyran-2-carboxamide] was tested. Which EC50 did it give?
The EC50 was 10 to 50 nM.

Which EC50 does the source give for `O=C(NC12CCC(n3cc(-c4ccc(C(F)(F)F)cn4)cn3)(C1)C2)[C@H]1C[C@@H](O)c2cc(Cl)c(F)cc2O1` [Compound 627, (2R,4R)-6-chloro-7-fluoro-4-hydroxy-N-(4-{4-[5-(trifluoromethyl)pyridin-2-yl]-1H-pyrazol-1-yl}bicyclo[2.1.1]hexan-1-yl)-3,4-dihydro-2H-1-benzopyran-2-carboxamide] here?
The EC50 was under 10 nM.

How did the EC50 turn out when `O=C(NC12CCC(n3cc(OCCCOC(F)(F)F)cn3)(C1)C2)[C@H]1C[C@@H](O)c2cc(Cl)ccc2O1` [Compound 628, (2R,4R)-6-chloro-4-hydroxy-N-(4-{4-[3-(trifluoromethoxy)propoxy]-1H-pyrazol-1-yl}bicyclo[2.1.1]hexan-1-yl)-3,4-dihydro-2H-1-benzopyran-2-carboxamide] was run?
The EC50 was 50 to 250 nM.

`O=C(NC12CCC(n3cc(OCCCOC(F)(F)F)cn3)(C1)C2)[C@H]1C[C@@H](O)c2cc(Cl)c(F)cc2O1` [Compound 629, (2R,4R)-6-chloro-7-fluoro-4-hydroxy-N-(4-{4-[3-(trifluoromethoxy)propoxy]-1H-pyrazol-1-yl}bicyclo[2.1.1]hexan-1-yl)-3,4-dihydro-2H-1-benzopyran-2-carboxamide] was tested. Which EC50 did it give?
The EC50 was 10 to 50 nM.

With `O=C(COc1ccc(Cl)c(F)c1)NC12CCC(n3cc(OCCCOC(F)(F)F)cn3)(C1)C2` [Compound 630, 2-(4-chloro-3-fluorophenoxy)-N-(4-{4-[3-(trifluoromethoxy)propoxy]-1H-pyrazol-1-yl}bicyclo[2.1.1]hexan-1-yl)acetamide] as the molecule, how does the EC50 read?
The EC50 was 50 to 250 nM.

`O=C(NC12CC(n3cc(OCCOC(F)(F)F)cn3)(C1)C2)[C@@H]1C[C@@H](O)c2cc(Cl)ccc2O1` [Compound 631, (2S,4R)-6-chloro-4-hydroxy-N-(3-{4-[2-(trifluoromethoxy)ethoxy]-1H-pyrazol-1-yl}bicyclo[1.1.1]pentan-1-yl)-3,4-dihydro-2H-1-benzopyran-2-carboxamide] was tested. Which EC50 did it give?
Its EC50 is 10 to 50 nM.

`O=C(NC12CC(n3cc(OCCOC(F)(F)F)cn3)(C1)C2)[C@H]1C[C@H](O)c2cc(Cl)ccc2O1` [Compound 632, (2R,4S)-6-chloro-4-hydroxy-N-(3-{4-[2-(trifluoromethoxy)ethoxy]-1H-pyrazol-1-yl}bicyclo[1.1.1]pentan-1-yl)-3,4-dihydro-2H-1-benzopyran-2-carboxamide] was tested. Which EC50 did it give?
The EC50 was 10 to 50 nM.

`O=C(NC12CC(n3cc(OCCOC(F)(F)F)cn3)(C1)C2)[C@H]1C[C@H](O)c2cc(C(F)(F)F)c(F)cc2O1` [Compound 633, (2R,43)-7-fluoro-4-hydroxy-N-(3-{4-[2-(trifluoromethoxy)ethoxy]-1H-pyrazol-1-yl}bicyclo[1.1.1]pentan-1-yl)-6-(trifluoromethyl)-3,4-dihydro-2H-1-benzopyran-2-carboxamide] was tested. Which EC50 did it give?
The EC50 was under 10 nM.

For `O=C(NC12CC(n3cc(-c4ccc(OC(F)(F)F)cn4)cn3)(C1)C2)[C@H]1C[C@H](O)c2cc(C(F)(F)F)c(F)cc2O1` [Compound 634, (2R,4S)-7-fluoro-4-hydroxy-N-(3-{4-[5-(trifluoromethoxy)pyridin-2-yl]-1H-pyrazol-1-yl}bicyclo[1.1.1]pentan-1-yl)-6-(trifluoromethyl)-3,4-dihydro-2H-1-benzopyran-2-carboxamide], which EC50 is on record?
Its EC50 is under 10 nM.

Which EC50 does the source give for `O=C(NC12CC(n3cc(OCCCOC(F)(F)F)cn3)(C1)C2)[C@H]1C[C@@H](O)c2cc(C(F)(F)F)c(F)cc2O1` [Compound 635, (2R,4R)-7-fluoro-4-hydroxy-N-(3-{4-[3-(trifluoromethoxy)propoxy]-1H-pyrazol-1-yl}bicyclo[1.1.1]pentan-1-yl)-6-(trifluoromethyl)-3,4-dihydro-2H-1-benzopyran-2-carboxamide] here?
Its EC50 is under 10 nM.

For `O=C(NC12CC(n3cc(OCCCOC(F)(F)F)cn3)(C1)C2)[C@H]1C[C@H](O)c2cc(C(F)(F)F)c(F)cc2O1` [Compound 636, (2R,4S)-7-fluoro-4-hydroxy-N-(3-{4-[3-(trifluoromethoxy)propoxy]-1H-pyrazol-1-yl}bicyclo[1.1.1]pentan-1-yl)-6-(trifluoromethyl)-3,4-dihydro-2H-1-benzopyran-2-carboxamide], which EC50 is on record?
The EC50 was under 10 nM.

How did the EC50 turn out when `O=C(N[C@H]1CC[C@H](n2cc(OCCOC(F)(F)F)cn2)CC1)[C@H]1C[C@@H](O)c2ccccc2O1` [Compound 637, (2R,4R)-4-hydroxy-N-[(1r,4R)-4-{4-[2-(trifluoromethoxy)ethoxy]-1H-pyrazol-1-yl}cyclohexyl]-3,4-dihydro-2H-1-benzopyran-2-carboxamide] was run?
Its EC50 is 50 to 250 nM.

How did the EC50 turn out when `O=C(N[C@H]1CC[C@H](n2cc(OCCOC(F)(F)F)cn2)CC1)[C@H]1C[C@@H](O)c2cc(F)c(F)cc2O1` [Compound 638, (2R,4R)-6,7-difluoro-4-hydroxy-N-[(1r,4R)-4-{4-[2-(trifluoromethoxy)ethoxy]-1H-pyrazol-1-yl}cyclohexyl]-3,4-dihydro-2H-1-benzopyran-2-carboxamide] was run?
Its EC50 is under 10 nM.

How did the EC50 turn out when `COc1ncc(-c2cnn(C34CC(NC(=O)[C@H]5C[C@@H](O)c6cc(C(F)(F)F)c(F)cc6O5)(C3)C4)c2)cn1` [Compound 639, (2R,4R)-7-fluoro-4-hydroxy-N-{3-[4-(2-methoxypyrimidin-5-yl)-1H-pyrazol-1-yl]bicyclo[1.1.1]pentan-1-yl}-6-(trifluoromethyl)-3,4-dihydro-2H-1-benzopyran-2-carboxamide] was run?
Its EC50 is under 10 nM.

`O=C(NC12CC(n3cc(-c4ccc(C(F)(F)F)cn4)cn3)(C1)C2)[C@H]1C[C@H](O)c2cc(C(F)(F)F)c(F)cc2O1` [Compound 640, (2R,4S)-7-fluoro-4-hydroxy-6-(trifluoromethyl)-N-(3-{4-[5-(trifluoromethyl)pyridin-2-yl]-1H-pyrazol-1-yl}bicyclo[1.1.1]pentan-1-yl)-3,4-dihydro-2H-1-benzopyran-2-carboxamide] was tested. Which EC50 did it give?
The EC50 was under 10 nM.
